Drawing on PubChem BioAssay (NCI), this text covers TGI for eleven compounds.

Common to all, as to experiment: NCI anticancer screen, dose series, 48 h
In assay [1] the test system is 786-0 renal.
Assay [2] relates to CCRF-CEM leukemia.
The subject of assay [3] is MDA-MB-435.
Assay [4] deals with NCI-H460 lung.
For assay [5], the system named is NCI-H522 lung.
Assay [6] has as its system OVCAR-4 ovarian.
Assay [7] concerns SF-268 CNS.
For assay [8], the system named is SK-MEL-2 melanoma.
Assay [9] deals with SK-OV-3 ovarian.
Assay [10] relates to SNB-19 CNS.

Molecules are shown by their SMILES.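 A five-concentration, 48-hour dose response in 96-well plates underlies each endpoint, interpolated linearly between surrounding concentrations. TGI denotes the concentration required for complete inhibition of growth.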 Some results are limits rather than exact numbers.

Take `O=C(CNc1nccs1)Nn1cnc2ccc(S(=O)(=O)Nc3nccs3)cc2c1=O`: the TGI in assay [1], in [2], in assay [3], in assay [4], in assay [5] and in assay [6] was > 100 µM in each case. Besides, the TGI in [7], in assay [8], in [9] and in assay [10] was > 100 µM each time.
Consider `Cc1ccc(S(=O)(=O)/N=C2/N(C)CCCS2(=O)=O)cc1`, for which the TGI in assay [1], in assay [2], in [3], in assay [4], in assay [5] and in [6] was > 100 µM in each case. The TGI in assay [7], in [8], in [9] and in assay [10] was > 100 µM each time.
With `COCCOC(C)C(=O)C(O)S(=O)(=O)O` (centres undefined), the TGI in assay [1], in assay [2], in [3], in assay [4], in assay [5] and in assay [6] was > 100 µM in each case. Further, the TGI in assay [7], in assay [8], in assay [9] and in assay [10] was > 100 µM each time.
For `COc1cc(S(=O)(=O)Nc2ccc(-c3csc(N4C(=O)C(Cl)C4c4cccc(Oc5ccccc5)c4)n3)cc2)ccc1Cl` (centres undefined), the TGI is 26.5 µM in assay [1]; > 100 µM in [2]; 39.7 µM in assay [3]; > 100 µM in [4]; 3.22 µM in assay [5]; 18.1 µM in [6]. Further, the TGI in assay [7] is 28.3 µM; in [8], 76.7 µM; in assay [9], > 100 µM; in assay [10], > 100 µM.
Take `CSc1c2c(C)n[nH]c2nn1-c1ccccc1`: the TGI in assay [1], in assay [2], in [3], in [4], in [5] and in assay [6] was > 100 µM throughout. Also, the TGI in assay [7], in assay [8], in [9] and in [10] was > 100 µM each time.
In the case of `Cc1ccc(/C(O)=C/c2nc3cccnc3[nH]c2=O)cc1`, the TGI in assay [1], in assay [2], in assay [3], in [4], in [5] and in [6] was > 100 µM throughout. Besides, the TGI in assay [7], in assay [8], in assay [9] and in [10] was > 100 µM throughout.
As for `COc1cc(NS(C)(=O)=O)ccc1NCc1cnc2ccc3[nH]cccc3c12`, the TGI in assay [1] was 54 µM; in assay [2], 59.5 µM; in assay [3], 43.8 µM; in assay [4], 42.1 µM; in [5], 39.9 µM; in [6] it was 65.7 µM. Also, the TGI was 55.3 µM in assay [7], 39.4 µM in assay [8], 48 µM in assay [9] and > 89.1 µM in [10].
Regarding `C/C(=N/NC(=S)N(C)C)c1ccccc1O`, the TGI is > 100 µM in [1]; 21 µM in [2]; > 100 µM in assay [3]; 30.1 µM in assay [4]; > 100 µM in assay [5]; > 85 µM in [6]. Further, the TGI is > 38.2 µM in [7], > 100 µM in assay [8], > 100 µM in assay [9] and > 100 µM in assay [10].
Turning to `CCNC(=O)NNc1ncnc2c1c(-c1ccc(Cl)cc1)cn2-c1ccc(C)cc1`, the TGI in [1] came to 32.8 µM; in [2], 43.1 µM; in [3], 30.7 µM; in assay [4] it was 48.5 µM; in [5], 38.3 µM; in assay [6], 40.8 µM. In addition, the TGI is 39 µM in assay [7], 42.2 µM in assay [8], 73.7 µM in assay [9] and 34.5 µM in assay [10].
Consider `CC(=O)OC12CC(C(F)(F)F)(C(F)(F)F)OC1(OC(C)=O)CC(C(F)(F)F)(C(F)(F)F)O2` (centres undefined), for which the TGI in [1] was 12.4 µM; in assay [2] it was > 100 µM; in [3] it was > 100 µM; in assay [4], > 100 µM; in assay [5], > 100 µM; in assay [6], > 100 µM. Further, the TGI is 6.37 µM in [7], > 100 µM in assay [8], 79.8 µM in assay [9] and > 100 µM in [10].
As for `COC(=O)[C@H]1[C@@H](O)[C@@]2(O)c3c(OC)cc(OC)cc3O[C@@]2(c2ccc3c(c2)OCO3)[C@@H]1c1ccccc1`, the TGI in assay [1] is 0.0944 µM; in assay [2], > 50 µM; in assay [3], > 50 µM; in [5], 0.741 µM; in assay [6], > 10.1 µM; in assay [7], 2.11 µM. For the same compound, the TGI worked out at 0.45 µM in assay [8], 1.54 µM in assay [9] and 0.00512 µM in [10].
